Active and inactive are the calls of the source.
Key:
Assay type in all cases: functional, cell-based
[1] = tested on: Peritoneal macrophage cell; experiment: Inhibition of NO production in LPS-activated mouse peritoneal macrophages at 100 ng/mL after 1 day by ELISA
[2] = tested on: Splenocyte; experiment: Inhibition of IL-6 secretion in ConA-activated Balb/C mouse splenocytes at 100 ng/mL after 1 day by ELISA
[3] = tested on: Splenocyte; experiment: Inhibition of IL-4 secretion in ConA-activated Balb/C mouse splenocytes at 100 ng/mL after 1 day by ELISA
[4] = tested on: Splenocyte; experiment: Stimulation of IL-2 secretion in ConA-activated Balb/C mouse splenocytes at 100 ng/mL after 1 day by ELISA
[5] = tested on: Peritoneal macrophage cell; experiment: Increase in IL-12 production in LPS-activated mouse peritoneal macrophages at 100 ng/mL after 1 day by ELISA

CC(C)=C[C@H]1C[C@](C)(O[C@@H]2O[C@H](CO)[C@@H](O)[C@H](O)[C@H]2O)[C@H]2CC[C@]3(C)[C@@H]2[C@@H](C[C@@H]2[C@@]4(C)CC[C@H](O)C(C)(C)[C@@H]4CC[C@]23C)O1
active: inhibition [1] | inhibition [2] | inhibition [3] | Activity [4] | Activity [5]

CC(=O)/C=C/C=C(\C)[C@H]1CC[C@]2(C)[C@@H]1[C@H](O)C[C@@H]1[C@@]3(C)CC[C@H](O)C(C)(C)[C@@H]3[C@@H](O)C[C@]12C
active: inhibition [1] | inhibition [2] | inhibition [3] | Activity [4] | Activity [5]

CC(C)=CCC[C@](C)(O)[C@H]1CC[C@]2(C)[C@@H]1[C@H](O)C[C@@H]1[C@@]3(C)CC[C@H](O)C(C)(C)[C@@H]3[C@@H](O[C@@H]3O[C@H](CO)[C@@H](O)[C@H](O)[C@H]3O[C@H]3O[C@@H](C)[C@H](O)[C@@H](O)[C@H]3O)C[C@]12C
active: inhibition [2] | inhibition [3] | Activity [4] | Activity [5]
